Results on seven compounds are retold here after patent US20230129095A1, “PEPTIDE INHIBITORS OF INTERLEUKIN-23 RECEPTOR AND THEIR USE TO TREAT INFLAMMATORY DISEASES” (Protagonist Therapeutics, Inc., priority 2020, published 2023).

What all share (type): in vitro ADME
Series [1] in a line: Stability in human fecal homogenate (anaerobic). As to conditions: pH 6.8, 20% human fecal homogenate, 37° C., up to 24 hours, read-out: t1/2: Human Feces anaerobic. The protocol: (§1) Studies were carried out in human or cynomolgus monkey fecal homogenate to evaluate gastrointestinal stability of the peptide inhibitors of the present invention.
(§2) Fecal homogenate ([…]) was prepared by adding 4 mL of growth medium (1 liter contains 2 g peptone water powder, 2 g yeast extract, 0.1 g NaCl, 0.04 g KH2PO4, 0.01 g CaCl2.6H2O, 0.01 g MgSO4.7H2O, 2 mL Tween 80, 0.5 g bile salts, 0.5 g L-cysteine HCl, 2 g NaHCO3, and 10 μL Vitamin K, pH adjusted to 6.8, and sterilized by filtration through a 0.22 μm filter) to every gram of feces (pooled freshly collected human or cynomolgus monkey feces). The suspension was vortexed to break up large clumps, and homogenized using a bead mill homogenizer. Centrifuged the homogenate at 2800×g for 15 min. The supernatant is taken out and used for incubations. DMSO stocks (10 mM) were first prepared for the test compounds. Incubations were performed in an anaerobic chamber conditioned at 37° C. Aliquots of the DMSO solutions were dosed into 1.0 mL aliquots of 20% fecal homogenate, which are pre-warmed to 37° C. The final test compound concentration was 20 μM. At each timepoint (0, 20 min, 1, 3, 6, or 24 hours), 100 μL aliquot of each incubation mixture is taken out and added to separate tubes containing 300 μL of 50% acetonitrile/50% methanol and an internal standard to terminate the reaction. Samples were taken out of the anaerobic chamber and stored at 4° C. until the end of the experiment. After the final timepoint is sampled, the tubes were mixed and then centrifuged at 3,000 rpm for 10 minutes. Aliquots of the supernatant were removed, diluted 1:1 into distilled water containing 0.1% formic acid, and analyzed by LC/MS/MS. Percent remaining at each timepoint was calculated based on the peak area response ratio of test to compound to internal standard. Time 0 was set to 100%, and all later timepoints were calculated relative to time 0. Half-lives were calculated by fitting to a first-order exponential decay equation using Graphpad or Excel.

A further series can be described thus: Stability in rat plasma. The settings on record: both sexes, SD rat plasma, EDTA, 37° C., up to 24 hours, read-out: t1/2: Rat Plasma EDTA. The procedure:
Peptides of interest (20 μM) were incubated with pre-warmed rat plasma (SD rat, mixed gender pooled, EDTA, filtered through 0.22 μm, BioreclamationIVT) at 37° C. Aliquots were taken at various time points up to 24 hours (e.g. 0, 0.25, 1, 3, 6 and 24 hr), and immediately quenched with 4 volumes of organic solvent (acetonitrile/methanol (1:1) and 0.1% formic acid, containing 1 μM internal standard). Quenched samples were stored at 4° C. until the end of the experiment and centrifuged at 4,000 rpm for 10 minutes. The supernatant were diluted 1:1 with deionized water and analyzed using LC-MS. Percentage remaining at each time point was calculated based on the peak area ratio (analyte over internal standard) relative to the initial level at time zero. Half-lives were calculated by fitting to a first-order exponential decay equation using GraphPad.

A short description of series [2]: Stability in simulated intestinal fluid (SIF). The settings on record: 37° C.; for SIF t1/2: 100 fold dilution of standard SIF concentration, 20 μM; for half-life at 20 μM: pH 6.8, 100 fold dilution of standard SIF concentration, read-out: SIF t1/2 (converted). The procedure:
Studies were carried out in simulated intestinal fluid (SIF) and simulated gastric fluid (SGF) to evaluate gastric stability of the peptide inhibitors of the present invention. In addition, studies were carried out to assess redox stability of the peptide inhibitors of the present invention.
SIF was prepared by adding 6.8 g of monobasic potassium phosphate and 10.0 g of pancreatin to 1.0 L of water. After dissolution, the pH was adjusted to 6.8 using NaOH. DMSO stocks (2 mM) were first prepared for the test compounds. Aliquots of the DMSO solutions were dosed into 6 individual tubes, each containing 0.5 mL of SIF, which is pre-warmed to 37° C. The final test compound concentration was 20 μM. The vials were kept in a benchtop Thermomixer® for the duration of the experiment. At each timepoint (0, 5, 10, 20, 40, 60, or 360 minutes or 24 hours), 1.0 mL of acetonitrile containing 1% formic acid was added to one vial to terminate the reaction. Samples were stored at 4° C. until the end of the experiment. After the final timepoint is sampled, the tubes were mixed and then centrifuged at 3,000 rpm for 10 minutes. Aliquots of the supernatant were removed, diluted 1:1 into distilled water containing internal standard, and analyzed by LCMS/MS. Percent remaining at each timepoint was calculated based on the peak area response ratio of test to compound to internal standard. Time 0 was set to 100%, and all later timepoints were calculated relative to time 0. Half-lives were calculated by fitting to a first-order exponential decay equation using Graphpad.

A short description of series [3]: Stability in cynomolgus monkey fecal homogenate (anaerobic). As to conditions: pH 6.8, 20% cynomolgus monkey fecal homogenate, 37° C., up to 24 hours, read-out: t1/2: Monkey Feces anaerobic (converted). The procedure: as §1, §2
The mark [4] stands for this setting: 20% fecal homogenate (supernatant).

*1 amine or outer side, *2 acyl side, *3 side chain or, on linkers, in order; H or OH if unused. Where a SMILES comes first, the peptide text is derived from it. Bridges are numbered along the chain shown (N, C = ends). [ ]: non-standard residue; d: D form. X5 = CC(C)c1cccc(-c2cccc3c(C[C@H](N[*:1])C(=O)[*:2])c[nH]c23)c1; X8 = COc1cccc(-c2cccc3c(C[C@H](N[*:1])C(=O)[*:2])c[nH]c23)c1; X7 = O=C([C@H](Cc1c[nH]c2cc(-c3ccccc3)ccc12)N[*:1])[*:2]; Trp(7-Ph) = N[C@@H](Cc1c[nH]c2c(-c3ccccc3)cccc12)C(=O)O; X4 = O=C([C@H](Cc1c[nH]c2c(-c3ccsc3)cccc12)N[*:1])[*:2]; Abu(4-yl) = O=C([C@H](CC[*:3])N[*:1])[*:2]; 2Nal = N[C@@H](Cc1ccc2ccccc2c1)C(=O)O; AEF = NCCOc1ccc(C[C@H](N)C(=O)O)cc1; Pen = CC(C)(S)[C@H](N)C(=O)O; αMeK = C[C@](N)(CCCCN)C(=O)O Bounds are passed on as bounds.

Regarding `CC(=O)NCCCC[C@H](NC(=O)[C@](C)(CCCCN)NC(=O)[C@H](Cc1ccc2ccccc2c1)NC(=O)[C@H](Cc1ccc(OCCN)cc1)NC(=O)[C@H]1NC(=O)[C@H](CCC(N)=O)NC(=O)[C@H](Cc2c[nH]c3c(-c4ccsc4)cccc23)NC(=O)[C@H]([C@@H](C)O)NC(=O)[C@H](CC(N)=O)NC(=O)[C@@H](NC(C)=O)C(C)(C)SSC1(C)C)C(=O)N[C@@H](CC(N)=O)C(=O)N[C@H](CCCCN)C(N)=O` [Peptide 2] (Ac-[Pen]NT[X4]Q[Pen][AEF][2Nal][αMeK]K(Ac)N[dK]-NH2; disulfide 1-6), the half-life at 20 μM (in series [1] (setting [4]); in the series “Stability in rat plasma”; in series [3] (setting [4])) was more than 24 h each time. Besides, the “SIF t1/2” value in series [2] is 24 h.
`CC(=O)NCCCC[C@@H]1NC(=O)[C@H](Cc2c[nH]c3c(-c4ccccc4)cccc23)NC(=O)[C@H]([C@@H](C)O)NC(=O)[C@H](CCC(N)=O)NC(=O)[C@@H](NC(=O)[C@@H](CCCNC(=N)N)NC(C)=O)CCSC[C@@H](C(=O)N[C@@H](Cc2ccc(OCCN)cc2)C(=O)N[C@@H](Cc2ccc3ccccc3c2)C(=O)N[C@@](C)(CCCCN)C(=O)N[C@@H](CCCCNC(C)=O)C(=O)N[C@@H](CC(N)=O)C(=O)N[C@H](CC(C)C)C(N)=O)NC1=O` [Peptide 3, Ac-[(D)Arg]-Abu-Q-T-[W(7-Ph)]-[Lys(Ac)]-[Cys]-Phe[4-(2-aminoethoxy)]-[2-Nal]-[a-MeLys]-[Lys(Ac)]-N-[(D)Leu]-NH2] (Ac-[dR][Abu(4-yl)]QT[Trp(7-Ph)]K(Ac)C[AEF][2Nal][αMeK]K(Ac)N[dL]-NH2; thioether 2-7): the half-life at 20 μM (in series [1]; in the series “Stability in rat plasma” (pooled); in series [3]) was more than 24 h in each case. Besides, the “SIF t1/2” value in series [2] was 24 h.
`CC(=O)NCCCC[C@@H]1NC(=O)[C@H](Cc2c[nH]c3c(-c4ccccc4)cccc23)NC(=O)[C@H]([C@@H](C)O)NC(=O)[C@H](CCC(N)=O)NC(=O)[C@@H](NC(=O)[C@@H](CCCNC(=N)N)NC(C)=O)CCSC[C@@H](C(=O)N[C@@H](Cc2ccc(OCCN)cc2)C(=O)N[C@@H](Cc2ccc3ccccc3c2)C(=O)N[C@@](C)(CCCCN)C(=O)N[C@@H](CCCCNC(C)=O)C(=O)N[C@@H](CC(N)=O)C(N)=O)NC1=O` [Peptide 4, Ac-[(D)Arg]-[Abu]-Q-T-[W(7-Ph)]-[Lys(Ac)]-[Cys]-Phe[4-(2-aminoethoxy)]-[2-Nal]-[a-MeLys]-[Lys(Ac)]-NNH2] (Ac-[dR][Abu(4-yl)]QT[Trp(7-Ph)]K(Ac)C[AEF][2Nal][αMeK]K(Ac)N-NH2; thioether 2-7): the half-life at 20 μM in series [1] was more than 24 h; in the series “Stability in rat plasma” (pooled), more than 24 h; in series [2], 5.1 h; in series [3], 14.1 h.
`CC(=O)NCCCC[C@@H]1NC(=O)[C@H](Cc2c[nH]c3c(-c4ccccc4)cccc23)NC(=O)[C@H]([C@@H](C)O)NC(=O)[C@H](CCC(N)=O)NC(=O)[C@@H](NC(=O)[C@@H](CCCNC(=N)N)NC(C)=O)CCSC[C@@H](C(=O)N[C@@H](Cc2ccc(OCCN)cc2)C(=O)N[C@@H](Cc2ccc3ccccc3c2)C(=O)N[C@@](C)(CCCCN)C(=O)N[C@@H](CCCCNC(C)=O)C(=O)N[C@@H](CC(N)=O)C(=O)N[C@H](CCCCN)C(N)=O)NC1=O` [Peptide 5, Ac-[(D)Arg]-[Abu]-Q-T-[W(7-Ph)]-[Lys(Ac)]-[Cys]-Phe[4-(2-aminoethoxy)]-[2-Nal]-[a-MeLys]-[Lys(Ac)]-N-[(D)Lys)]-NH2] (Ac-[dR][Abu(4-yl)]QT[Trp(7-Ph)]K(Ac)C[AEF][2Nal][αMeK]K(Ac)N[dK]-NH2; thioether 2-7): the half-life at 20 μM was more than 24 h in series [1], more than 24 h in “Stability in rat plasma” (pooled), 6 h in series [2] and more than 24 h in series [3].
With `CC(=O)NCCCC[C@@H]1NC(=O)[C@H](Cc2c[nH]c3cc(-c4ccccc4)ccc23)NC(=O)[C@H]([C@@H](C)O)NC(=O)[C@H](CC(N)=O)NC(=O)[C@@H](NC(C)=O)C(C)(C)SSC(C)(C)[C@@H](C(=O)N[C@@H](Cc2ccc(OCCN)cc2)C(=O)N[C@@H](Cc2ccc3ccccc3c2)C(=O)N[C@@](C)(CCCCN)C(=O)N[C@@H](CCCCNC(C)=O)C(=O)N[C@@H](CC(N)=O)C(=O)N[C@H](CCCCN)C(N)=O)NC1=O` [Peptide 6, Ac-[Pen]-N-T-[W(6-Ph)]-[Lys(Ac)]-[Pen]-Phe[4-(2-aminoethoxy)]-[2-Nal]-[a-MeLys]-[Lys(Ac)]-N-[(D)Lys)]-NH2] (Ac-[Pen]NT[X7]K(Ac)[Pen][AEF][2Nal][αMeK]K(Ac)N[dK]-NH2; disulfide 1-6), the half-life at 20 μM (in series [1]; in “Stability in rat plasma” (pooled); in series [3]) was more than 24 h throughout. The “SIF t1/2” value in series [2] was 24 h.
On to `COc1cccc(-c2cccc3c(C[C@@H]4NC(=O)[C@H]([C@@H](C)O)NC(=O)[C@H](CC(N)=O)NC(=O)[C@@H](NC(C)=O)C(C)(C)SSC(C)(C)[C@@H](C(=O)N[C@@H](Cc5ccc(OCCN)cc5)C(=O)N[C@@H](Cc5ccc6ccccc6c5)C(=O)N[C@@](C)(CCCCN)C(=O)N[C@@H](CCCCNC(C)=O)C(=O)N[C@@H](CC(N)=O)C(=O)N[C@H](CCCCN)C(N)=O)NC(=O)[C@H](CCCCNC(C)=O)NC4=O)c[nH]c23)c1` [Peptide 8, Ac-[Pen]-N-T-[W(7-(3-OMePh))][Lys(Ac)]-[Pen]-Phe[4-(2-aminoethoxy)]-[2-Nal]-[a-MeLys]-[Lys(Ac)]-N-[(D)Lys)]-NH2] (Ac-[Pen]NT[X8]K(Ac)[Pen][AEF][2Nal][αMeK]K(Ac)N[dK]-NH2; disulfide 1-6), for which the half-life at 20 μM (in series [1]; in “Stability in rat plasma” (pooled); in series [3]) was more than 24 h throughout. The “SIF t1/2” value in series [2] was 24 h.
With `CC(=O)NCCCC[C@@H]1NC(=O)[C@H](Cc2c[nH]c3c(-c4cccc(C(C)C)c4)cccc23)NC(=O)[C@H]([C@@H](C)O)NC(=O)[C@H](CC(N)=O)NC(=O)[C@@H](NC(C)=O)C(C)(C)SSC(C)(C)[C@@H](C(=O)N[C@@H](Cc2ccc(OCCN)cc2)C(=O)N[C@@H](Cc2ccc3ccccc3c2)C(=O)N[C@@](C)(CCCCN)C(=O)N[C@@H](CCCCNC(C)=O)C(=O)N[C@@H](CC(N)=O)C(=O)N[C@H](CCCCN)C(N)=O)NC1=O` [Peptide 11, Ac-[Pen]-N-T-[W(7-(3-iPrPh))]-[Lys(Ac)]-[Pen]-Phe[4-(2-aminoethoxy)]-[2-Nal]-[a-MeLys]-[Lys(Ac)]-N-[(D)Lys)]-NH2] (Ac-[Pen]NT[X5]K(Ac)[Pen][AEF][2Nal][αMeK]K(Ac)N[dK]-NH2; disulfide 1-6), the half-life at 20 μM (in series [1]; in “Stability in rat plasma” (pooled); in series [3]) was more than 24 h in each case. In series [2], the “SIF t1/2” value is 24 h.
